Data taken from patent US20200360352A1, “USE OF RIFAMYCIN-NITROIMIDAZOLE COUPLING MOLECULE” (priority 2019, published 2020).
Values after ≈ are worked out from the molar mass of the structure shown. Like-named read-outs stand apart in the source and are kept apart here. Each block holds one compound with its values, some of them ahead of it.

What was measured:
Format in all cases: cell-based
[1] = test system: Mycobacterium avium; assay: MIC, micro broth dilution with resazurin readout; conditions: read-out: Minimum Inhibitory Concentration (MIC)
[2] = test system: Mycobacterium abscessus; assay: MIC, micro broth dilution with resazurin readout; conditions: Mycobacteroides abscessus, read-out: Minimum Inhibitory Concentration (MIC)
[3] = test system: Mycobacterium kansasii; assay: MIC, micro broth dilution with resazurin readout; conditions: read-out: Minimum Inhibitory Concentration (MIC)
[4] = test system: Mycobacterium avium; assay: MBC, plating of MIC wells and CFU count; conditions: read-out: Minimum Bactericidal Concentration (MBC)
[5] = test system: Mycobacterium abscessus; assay: MBC, plating of MIC wells and CFU count; conditions: Mycobacteroides abscessus, read-out: Minimum Bactericidal Concentration (MBC)
[6] = test system: Mycobacterium kansasii; assay: MBC, plating of MIC wells and CFU count; conditions: read-out: Minimum Bactericidal Concentration (MBC)
[7] = test system: Mycobacterium intracellulare; assay: MIC, micro broth dilution with resazurin readout; conditions: MH Culture Medium, read-out: Minimum Inhibitory Concentration (MIC)
[8] = test system: Mycobacterium massiliense; assay: MIC, micro broth dilution with resazurin readout; conditions: Mycobacteroides abscessus, MH Culture Medium, read-out: Minimum Inhibitory Concentration (MIC)
[9] = test system: Mycobacterium fortuitum; assay: MIC, micro broth dilution with resazurin readout; conditions: Mycolicibacterium fortuitum, MH Culture Medium, read-out: Minimum Inhibitory Concentration (MIC)
[10] = test system: Mycodacterium chelonei; assay: MIC, micro broth dilution with resazurin readout; conditions: MH Culture Medium; Chelonei (standard strain); read-out: Minimum Inhibitory Concentration (MIC)
[11] = 7H9 Broth, Mycobacterium avium Rough
[12] = 7H9 Broth, Mycobacterium avium Smooth
[13] = MH Broth, Mycobacterium avium Rough
[14] = MH Broth, Mycobacterium avium Smooth

- MIC [1, 11]: > 64 µg/mL
- MIC [1, 12]: 2 µg/mL (≈ 3.42 µM)
- MIC [1, 13]: 2 µg/mL (≈ 3.42 µM)
- MIC [1, 14]: 2 µg/mL (≈ 3.42 µM)
- MIC ([2]; 7H9 Broth): 32 µg/mL (≈ 54.6 µM)
- MIC ([2]; MH Broth): 16 µg/mL (≈ 27.3 µM)
- MIC ([3]; 7H9 Broth): 16 µg/mL (≈ 27.3 µM)
- MIC ([3]; MH Broth): 1 µg/mL (≈ 1.71 µM)
Structure (SMILES): NCC[C@H](O)C(=O)N[C@@H]1C[C@H](N)[C@@H](O[C@H]2O[C@H](CN)[C@@H](O)[C@H](O)[C@H]2O)[C@H](O)[C@H]1O[C@H]1O[C@H](CO)[C@@H](O)[C@H](N)[C@H]1O [Amikacin]
- MBC [4, 11]: > 64 µg/mL
- MBC [4, 12]: > 64 µg/mL
- MBC [4, 13]: > 64 µg/mL
- MBC [4, 14]: > 64 µg/mL
- MBC ([5]; 7H9 Broth): > 64 µg/mL
- MBC ([5]; MH Broth): > 64 µg/mL
- MBC ([6]; 7H9 Broth): 64 µg/mL (≈ 109 µM)
- MBC ([6]; MH Broth): > 64 µg/mL

Structure (SMILES): O=C(O)c1cn(C2CC2)c2cc(N3CCNCC3)c(F)cc2c1=O [Ciprofloxacin]
- MIC [1, 12]: > 64 µg/mL
- MIC [1, 14]: > 64 µg/mL
- MIC ([2]; 7H9 Broth): 16 µg/mL (≈ 48.3 µM)
- MIC ([2]; MH Broth): > 64 µg/mL
- MIC ([3]; 7H9 Broth): > 64 µg/mL
- MIC ([3]; MH Broth): > 64 µg/mL
- MBC [4, 12]: > 64 µg/mL
- MBC [4, 14]: > 64 µg/mL
- MBC ([5]; 7H9 Broth): > 64 µg/mL
- MBC ([5]; MH Broth): > 64 µg/mL
- MBC ([6]; 7H9 Broth): > 64 µg/mL
- MBC ([6]; MH Broth): > 64 µg/mL

- MIC [1, 11]: > 64 µg/mL
- MIC [1, 12]: 32 µg/mL (≈ 42.8 µM)
- MIC [1, 13]: > 64 µg/mL
- MIC [1, 14]: > 64 µg/mL
- MIC ([1]; MH Culture Medium, Avium (standard strain)): 0.0625 µg/mL (≈ 0.0836 µM)
- MIC ([1]; MH Culture Medium, clinically isolated strain Avium (S31)): 0.125 µg/mL (≈ 0.167 µM)
- MIC ([1]; MH Culture Medium, clinically isolated strain Avium (S123)): 0.5 µg/mL (≈ 0.668 µM)
- MIC ([1]; MH Culture Medium, clinically isolated strain Avium (S559)): 0.25 µg/mL (≈ 0.334 µM)
- MIC ([1]; MH Culture Medium, clinically isolated strain Avium (S568)): 4 µg/mL (≈ 5.35 µM)
- MIC ([1]; MH Culture Medium, clinically isolated strain Avium (S577)): 0.25 µg/mL (≈ 0.334 µM)
- MIC ([1]; MH Culture Medium, clinically isolated strain Avium (S597)): 1 µg/mL (≈ 1.34 µM)
- MIC ([1]; MH Culture Medium, clinically isolated strain Avium (S602)): 1 µg/mL (≈ 1.34 µM)
- MIC ([2]; 7H9 Broth): 16 µg/mL (≈ 21.4 µM)
- MIC ([2]; MH Broth): 64 µg/mL (≈ 85.6 µM)
- MIC ([3]; 7H9 Broth): 2 µg/mL (≈ 2.67 µM)
- MIC ([3]; MH Broth): 2 µg/mL (≈ 2.67 µM)
- MIC ([3]; MH Culture Medium, Kansasii (standard strain)): 0.0625 µg/mL (≈ 0.0836 µM)
- MIC ([3]; MH Culture Medium, clinically isolated strain Kansasii (S9)): 0.125 µg/mL (≈ 0.167 µM)
- MIC ([3]; MH Culture Medium, clinically isolated strain Kansasii (S199)): 0.0625 µg/mL (≈ 0.0836 µM)
- MIC ([3]; MH Culture Medium, clinically isolated strain Kansasii (S520)): 0.0625 µg/mL (≈ 0.0836 µM)
- MIC ([3]; MH Culture Medium, clinically isolated strain Kansasii (S609)): 0.125 µg/mL (≈ 0.167 µM)
- MIC ([7]; Intracellulare (standard strain)): 0.0625 µg/mL (≈ 0.0836 µM)
- MIC ([7]; clinically isolated strain Intracellulare (S90)): 1 µg/mL (≈ 1.34 µM)
- MIC ([7]; clinically isolated strain Intracellulare (S261)): 1 µg/mL (≈ 1.34 µM)
- MIC ([7]; clinically isolated strain Intracellulare (S269)): 1 µg/mL (≈ 1.34 µM)
- MIC ([7]; clinically isolated strain Intracellulare (S290)): 1 µg/mL (≈ 1.34 µM)
- MIC ([7]; clinically isolated strain Intracellulare (S291)): 1 µg/mL (≈ 1.34 µM)
- MIC ([7]; clinically isolated strain Intracellulare (S298)): 2 µg/mL (≈ 2.67 µM)
- MIC ([7]; clinically isolated strain Intracellulare (S442)): 2 µg/mL (≈ 2.67 µM)
- MIC ([7]; clinically isolated strain Intracellulare (S541)): 64 µg/mL (≈ 85.6 µM)
- MIC ([7]; clinically isolated strain Intracellulare (S623)): 4 µg/mL (≈ 5.35 µM)
- MIC ([7]; clinically isolated strain Intracellulare (ZPS)): 1 µg/mL (≈ 1.34 µM)
- MIC ([8]; clinically isolated strain Massiliense (D10)): 0.25 µg/mL (≈ 0.334 µM)
- MIC ([8]; clinically isolated strain Massiliense (D14)): 0.0625 µg/mL (≈ 0.0836 µM)
- MIC ([8]; clinically isolated strain Massiliense (D18)): 0.0625 µg/mL (≈ 0.0836 µM)
- MIC ([9]; Fortuitum (standard strain)): 32 µg/mL (≈ 42.8 µM)
- MIC ([9]; clinically isolated strain Fortuitum (S103)): > 64 µg/mL
- MIC ([9]; clinically isolated strain Fortuitum (S111)): 2 µg/mL (≈ 2.67 µM)
- MIC [10]: 0.5 µg/mL (≈ 0.668 µM)
Structure (SMILES): CC[C@H]1OC(=O)[C@H](C)[C@@H](O[C@H]2C[C@@](C)(OC)[C@@H](O)[C@H](C)O2)[C@H](C)[C@@H](O[C@@H]2O[C@H](C)C[C@H](N(C)C)[C@H]2O)[C@](C)(OC)C[C@@H](C)C(=O)[C@H](C)[C@@H](O)[C@]1(C)O [Clarithromycin]
- MBC [4, 11]: > 64 µg/mL
- MBC [4, 12]: > 64 µg/mL
- MBC [4, 13]: > 64 µg/mL
- MBC [4, 14]: > 64 µg/mL
- MBC ([5]; 7H9 Broth): > 64 µg/mL
- MBC ([5]; MH Broth): > 64 µg/mL
- MBC ([6]; 7H9 Broth): 64 µg/mL (≈ 85.6 µM)
- MBC ([6]; MH Broth): > 64 µg/mL
